# Values of other authors in US8759404B2, “Intravenous propofol emulsion compositions having preservative efficacy” (Bharat Serums & Vaccines Ltd., priority 2005, dated 2014).
# Experiments:
# [1] = system: rats
Structure (SMILES),Oral LD50 in rats ([1]; oral),solubility in aqueous media (aqueous media),"solubility in fat solvents (chloroform, benzene, ethanol, or acetone)",LD50 ([1]; administered orally)
"CCCCCCCCCC(=O)O [Capric acid, Decanoic acid]","more than 10,000 mg/kg",,,
"CCCCCCCCCCCC(=O)OCC(O)CO (stereo not shown) [Monolaurin, monoglyceryl ester of lauric acid]",,insoluble,highly soluble,"about 53,000 mg/kg body weight"
